Test results taken from patent publication US12274732B2, “Anti-pathogen composition and methods of use thereof” (Tenfold Technologies, LLC, priority 2017, dated 2025).
In brackets after ≈: the same amount, converted by molar mass. Where two headings read alike, the source gives them in different places.

What was measured:
Assay type in all cases: cell-based
Aspergillus fumigatus = test: In vitro antimicrobial activity against Aspergillus fumigatus; details: for IC50: Aspergillus fumigatus, read-out: A. fumigatus IC50; for A. fumigatus IC50: Table 5, extracts tested at 8-200 μg/mL
Experimental: (§1) Fifty organic extracts were prepared from 25 whole broth of four microbial strains (MS1479, MS2379, MS2820, and MS2414), which were fermented in different media for the antimicrobial testing. Note each whole broth culture generated one n-butanol extract from cultural supernatant and one methanol extract from cell pellets.
(§2) The antimicrobial activities of the 50 organic extracts were studied against three fungal pathogens—Candida albicans, Aspergillus fumigatus, and Cryptococcus neoformans—and five bacterial strains-Methicillin-resistant Staphylococcus aureus (MIRSA), Escherichia coli, Pseudomonas aeruginosa, Klebsiella pneumoniae, and Vancomycin-resistant Enterococcus faecium (VRE) (FIG. 2). The test concentrations for all extracts were in the range of 8-200 μg/mL (Table 3).
(§3) The antimicrobial activities of identified fusaricidins were in an in vitro study against several clinically relevant microbes. […] For the in-vitro assays against bacteria, fusaricidins were tested against methicillin-resistant Staphylococcus aureus, vancomycin-resistant Enterococcus faecium, Escherichia coli, and Pseudomonas aeruginosa using four antibacterial drugs methicillin, vancomycin, cefotaxime, and meropenem as controls. […] Fusaricidins were also tested against fungal pathogens Cryptococcus neoformans, Candida albicans, and Aspergillus fumigatus and compared with two antifungal drugs, fluconazole and amphotericin B (Table 13). Moreover, the anti-parasitic activity was also tested against L. donovani and T. brucei (Table 14).

[1] = tested on: Vancomycin-resistant Enterococcus faecium (VRE); test: In vitro antimicrobial activity against VRE; details: for MIC: read-out: VRE MIC (minimum inhibitory concentration); for VRE IC50: Table 5, extracts tested at 8-200 μg/mL
Experimental: as §1, §2, §3

Candida albicans = test: In vitro antimicrobial activity against Candida albicans; details: for IC50: Candida albicans, read-out: C. albicans IC50; for C. albicans IC50: Table 5, extracts tested at 8-200 μg/mL
Experimental: as §1, §2, §3

Escherichia coli = test: In vitro antimicrobial activity against Escherichia coli
Experimental: as §1, §2, §3

Pseudomonas aeruginosa = test: In vitro antimicrobial activity against Pseudomonas aeruginosa
Experimental: as §1, §2, §3

Cryptococcus neoformans = test: In vitro antimicrobial activity against Cryptococcus neoformans; details: for IC50: Cryptococcus neoformans, read-out: C. neoformans IC50; for C. neoformans IC50: Table 5, extracts tested at 8-200 μg/mL
Experimental: as §1, §2
The potent activities against the fungal pathogen C. neoformans and the gram-positive bacteria S. aureus, MRSA, and M. intracellulare were also shown in the crude extracts (FIG. 7).
as §3

[2] = tested on: Methicillin-resistant Staphylococcus aureus (MRSA); test: In vitro antimicrobial activity against MRSA; details: for MIC: read-out: MRSA MIC (minimum inhibitory concentration)
Experimental: as §1, §2, §3

Klebsiella pneumoniae = test: In vitro antimicrobial activity against Klebsiella pneumoniae; details: Klebsiella pneumoniae, read-out: K pneumoniae IC50
Experimental: as §1, §2

T. brucei = test: In-vitro antiparasitic activity against T. brucei
Experimental: as §3

[3] = test conc. 200-8 μg/mL (extracts), 100-4 or 10-0.4 μg/mL (drugs)
[4] = ATCC 700221 / VRE, Table 13, Vancomycin-resistant Enterococcus faecium ATCC 700221, read-out: VRE IC50 (50% growth inhibitory concentration)
[5] = ATCC 700221 / VRE, Table 13, Vancomycin-resistant Enterococcus faecium ATCC 700221
[6] = test conc. 200-8 μg/mL (extracts), 100-4 or 10-0.4 μg/mL (drugs), read-out: VRE IC50
[7] = ATCC2452, Table 13, Escherichia coli ATCC 2452, read-out: E. coli IC50 (50% growth inhibitory concentration)
[8] = ATCC2452, Table 13, Escherichia coli ATCC 2452, read-out: E. coli MIC (minimum inhibitory concentration)
[9] = Escherichia coli, test conc. 200-8 μg/mL (extracts), 100-4 or 10-0.4 μg/mL (drugs), read-out: E. coli IC50
[10] = ATCC2108, Table 13, Pseudomonas aeruginosa ATCC 2108, read-out: P. aeruginosa IC50 (50% growth inhibitory concentration)
[11] = ATCC2108, Table 13, Pseudomonas aeruginosa ATCC 2108, read-out: P. aeruginosa MIC (minimum inhibitory concentration)
[12] = Pseudomonas aeruginosa, test conc. 200-8 μg/mL (extracts), 100-4 or 10-0.4 μg/mL (drugs), read-out: P. aeruginosa IC50
[13] = ATCC 1708 / MRSA, Table 13, Methicillin-resistant Staphylococcus aureus ATCC 1708, read-out: MRSA IC50 (50% growth inhibitory concentration)
[14] = ATCC 1708 / MRSA, Table 13, Methicillin-resistant Staphylococcus aureus ATCC 1708
[15] = Staphylococcus aureus, MRSA, test conc. 200-8 μg/mL (extracts), 100-4 or 10-0.4 μg/mL (drugs), read-out: MRS IC50

Row | SMILES | IC50 (Aspergillus fumigatus; [3]) [µg/mL] | A. fumigatus IC50 (Aspergillus fumigatus) [µg/mL] | IC50 [1, 4] [µg/mL] | MIC [1, 5] [µg/mL] | VRE IC50 [1] [µg/mL] | IC50 [1, 6] [µg/mL] | IC50 (Candida albicans; [3]) [µg/mL] | C. albicans IC50 (Candida albicans) [µg/mL] | IC50 (Escherichia coli; [7]) [µg/mL] | MIC (Escherichia coli; [8]) [µg/mL] | IC50 (Escherichia coli; [9]) [µg/mL] | IC50 (Pseudomonas aeruginosa; [10]) [µg/mL] | MIC (Pseudomonas aeruginosa; [11]) [µg/mL] | IC50 (Pseudomonas aeruginosa; [12]) [µg/mL] | IC50 (Cryptococcus neoformans; [3]) [µg/mL] | C. neoformans IC50 (Cryptococcus neoformans) [µg/mL] | IC50 [2, 13] [µg/mL] | MIC [2, 14] [µg/mL] | IC50 [2, 15] [µg/mL] | IC50 (Klebsiella pneumoniae; [3]) [µg/mL] | also measured
1 | C[C@@H](O)[C@H]1C(=O)N2C(C(=O)O)=C(S[C@@H]3CN[C@H](C(=O)N(C)C)C3)[C@H](C)[C@H]12 [Meropenem] | > 100 | >100 | > 100 | > 100 | >100 | > 100 | > 100 | >100 | 5.4 (≈ 14.1 µM) | 12.5 (≈ 32.6 µM) | 11.5 (≈ 30 µM) | 5.9 (≈ 15.4 µM) | 25 (≈ 65.2 µM) | > 100 | > 100 | >100 | 5.7 (≈ 14.9 µM) | 12.5 (≈ 32.6 µM) | 2.75 (≈ 7.17 µM) | 18.1 (≈ 47.3 µM) | 
2 | COc1cccc(OC)c1C(=O)N[C@@H]1C(=O)N2[C@@H]1SC(C)(C)[C@@H]2C(=O)O [Methicillin] | > 100 | >100 | > 100 | > 100 | >100 | > 100 | > 100 | >100 | > 100 | > 100 | > 100 | 76 (≈ 200 µM) | > 100 | 95.4 (≈ 251 µM) | > 100 | >100 | 12.1 (≈ 31.8 µM) | 50 (≈ 131 µM) | 19 (≈ 49.9 µM) | > 100 | 
3 | CN[C@H](CC(C)C)C(=O)N[C@H]1C(=O)N[C@@H](CC(N)=O)C(=O)N[C@H]2C(=O)N[C@H]3C(=O)N[C@H](C(=O)N[C@H](C(=O)O)c4cc(O)cc(O)c4-c4cc3ccc4O)[C@H](O)c3ccc(c(Cl)c3)Oc3cc2cc(c3O[C@@H]2O[C@H](CO)[C@@H](O)[C@H](O)[C@H]2O[C@H]2C[C@](C)(N)[C@H](O)[C@H](C)O2)Oc2ccc(cc2Cl)[C@H]1O [Vancomycin] |  | >100 |  |  | >100 |  |  | >100 |  |  |  |  |  |  |  | >100 |  |  |  |  | IC50 (Aspergillus fumigatus): > 100 µg/mL; IC50 ([1]; Enterococcus faecium, ATCC 700221 / VRE, read-out: VRE IC50 (50% growth inhibitory concentration)): > 100 µg/mL; MIC ([1]; Enterococcus faecium, ATCC 700221 / VRE): > 100 µg/mL; IC50 ([1]; read-out: VRE IC50): > 100 µg/mL; IC50 (Candida albicans): > 100 µg/mL; IC50 (Escherichia coli; Escherichia coli, ATCC2452, read-out: E. coli IC50 (50% growth inhibitory concentration)): 62.3 µg/mL (≈ 43 µM); MIC (Escherichia coli; Escherichia coli, ATCC2452, read-out: E. coli MIC (minimum inhibitory concentration)): > 100 µg/mL; IC50 (Escherichia coli; Escherichia coli, read-out: E. coli IC50): 67.4 µg/mL (≈ 46.5 µM); IC50 (Pseudomonas aeruginosa; Pseudomonas aeruginosa, ATCC2108, read-out: P. aeruginosa IC50 (50% growth inhibitory concentration)): > 100 µg/mL; MIC (Pseudomonas aeruginosa; Pseudomonas aeruginosa, ATCC2108, read-out: P. aeruginosa MIC (minimum inhibitory concentration)): > 100 µg/mL; IC50 (Pseudomonas aeruginosa; Pseudomonas aeruginosa, read-out: P. aeruginosa IC50): > 100 µg/mL; IC50 (Cryptococcus neoformans): > 100 µg/mL; IC50 ([2]; Staphylococcus aureus, ATCC 1708 / MRSA, read-out: MRSA IC50 (50% growth inhibitory concentration)): 1.3 µg/mL (≈ 0.897 µM); MIC ([2]; Staphylococcus aureus, ATCC 1708 / MRSA): 1.6 µg/mL (≈ 1.1 µM); IC50 ([2]; Staphylococcus aureus, MRSA, read-out: MRS IC50): 0.17 µg/mL (≈ 0.117 µM); IC50 (Klebsiella pneumoniae): > 100 µg/mL
4 | NCCC[C@](N)(C(=O)O)C(F)F [α-Difluoromethylomithine] |  |  |  |  |  |  |  |  |  |  |  |  |  |  |  |  |  |  |  |  | T. brucei IC50 (T. brucei): 5.7 µg/mL; T. brucei IC90 (T. brucei; 90% inhibitory concentration): 6.6 µg/mL
